Test results taken from patent US20080108511A1, “GENES AND GENE PRODUCTS […] EXPRESSED DURING HEART FAILURE” (priority 2006, published 2008).
Marks after values point to notes of the source that are not given here.

Tested on: turkey poults
Details: in vivo
Source text: The values shown in Table 4 are the average values±the standard error. The values in parentheses indicate the number of hearts. CK is creatine kinase, LDH is lactate dehydrogenase, and AST is aspartate transaminase. Ca^2+-ATPase activity was normalized per gram of protein. * represents p<0.05.

## O=C1OCCN1/N=C/c1ccc([N+](=O)[O-])o1 [Fz, furazolidone]
  ATP synthase: 87 ± 4* (4) IU/g
  LDH: 219 ± 12* (9) IU/g
  Myoglobin: 27.2 ± 3.1* (5) μg/g
  SR Ca2+ cycling: Ca2+-ATPase: 3.4 ± 0.6* (4) IU/g
  SR Ca2+ cycling: Ca2+-ATPase pump: 24.4 ± 6.3* (9) nM/s
  Total ATPase: 16.8 ± 0.9* (4) IU/g
  Total protein: 111 ± 3.0* (8) mg/g
  myofibrillar protein content: 34.6 ± 2.5 mg/g
